The text below walks through data of patent US5460829A, “Pharmaceutical compositions based on ebastine or analogues thereof” (Rhone-Poulenc Rorer S.A., priority 1991, dated 1995).

Data set [1] can be described thus: Water solubility at pH 2. The data set is classed as physicochemical.
Data set [2] can be described thus: Dissolution of the active principle in aqueous/acidic medium. The data set is classed as physicochemical. The settings on record: oral administration.
Data set [3] in a line: Bioavailability of solid form. The data set is classed as in vivo. As to conditions: formulated in solid form.

A word on the solubility: it is the dissolved amount per volume that the medium holds. Turning to `CC(C)(C)c1ccc(C(=O)CCCN2CCC(OC(c3ccccc3)c3ccccc3)CC2)cc1` [compound of formula (I) lactate], the solubility in data set [1] (water, in the form of the lactate, pH 2, read-out: optimum solubility) was determined as 800 µg/mL.
In the case of `CC(C)(C)c1ccc(C(=O)CCCN2CCC(OC(c3ccccc3)c3ccccc3)CC2)cc1` [compound of formula (I), 4-diphenylmethoxy-1-[3-(4-tert-butylbenzoyl)propyl]piperidine], the “dissolution time in the aqueous medium of the stomach” value in data set [2] is listed as “very long”. For the same molecule, the bioavailability result in data set [3] is given as “very mediocre”. In addition, the water solubility entry in data set [1] (basic non-salified form, relative to the lactate) is on record as “even lower”.
